Earlier results, collected in patent US20130230609A1, “ANTIMICROBIAL/PRESERVATIVE COMPOSITIONS COMPRISING BOTANICALS” (priority 2012, published 2013).

## zinc glycerate
  water solubility (in words): moderately water soluble

## zinc picolinate
  water solubility (in words): moderately water soluble
